# Literature values in PubChem BioAssay AID1259409 (Chemical Carcinogenesis Research Information System (CCRIS), 2018).
# Test system: rodent chemically induced tumor inhibition, incidence and multiplicity
# Assay: CCRIS tumor inhibitor studies
# Conditions: Route [Inhibitor]: DERMAL, Species: MOUSE, Target Tissue: Type of Lesion: SKIN: PAPILLOMA, Promoter: 12-O-TETRADECANOYLPHORBOL-13-ACETATE, 16561-29-8
compound,measurement,setting,value
O=c1cc(-c2ccccc2)oc2c1ccc1ccccc12,"tumour outcome (control, treated, inhibition, significance)","Carcinogen: 7,14-DIMETHYLBENZO[A,H]ANTHRACENE, 35335-07-0, Dose [Inhibitor]: 0, 370 NMOL IN 0.2 ML ACETONE APPLIED 5 MIN PRIOR TO CARCINOGEN (STUDY DURATION: 21 WK), Strain/Sex: SENCAR/FEMALE, Dose [Carcinogen]: 47.5 NMOL IN 0.2 ML ACETONE ONCE","97%, 96%, 1%, not calculated"
same,"tumour outcome (control, treated, inhibition, significance)","Carcinogen: 7,14-DIMETHYLBENZO[A,H]ANTHRACENE, 35335-07-0, Dose [Inhibitor]: 0, 3700 NMOL IN 0.2 ML ACETONE APPLIED 5 MIN PRIOR TO CARCINOGEN (STUDY DURATION: 21 WK), Strain/Sex: SENCAR/FEMALE, Dose [Carcinogen]: 47.5 NMOL IN 0.2 ML ACETONE ONCE","97%, 97%, 0%"
same,"tumour outcome (control, treated, inhibition, significance)","Carcinogen: 7-(BROMOMETHYL)BENZ[A]ANTHRACENE, 24961-39-3, Dose [Inhibitor]: 100 UG IN 0.2 ML ACETONE ONCE 5 MIN BEFORE CARCINOGEN TREATMENT (STUDY DURATION: 31 WK), Strain/Sex: CD-1/FEMALE, Dose [Carcinogen]: 3125 NMOL IN 0.2 ML ACETONE ONCE","55%, 30%, 45%, not calculated"
same,"tumour outcome (control, treated, inhibition, significance)","Carcinogen: 7-BROMOMETHYL-12-METHYLBENZ[A]ANTHRACENE, 16238-56-5, Dose [Inhibitor]: 100 UG IN 0.2 ML ACETONE ONCE 5 MIN BEFORE CARCINOGEN TREATMENT (STUDY DURATION: 31 WK), Strain/Sex: CD-1/FEMALE, Dose [Carcinogen]: 600 NMOL IN 0.2 ML ACETONE ONCE","96%, 72%, 25%, not calculated"
same,"tumour outcome (control, treated, inhibition, significance)","Carcinogen: 7-FORMYL-12-METHYLBENZ[A]ANTHRACENE, 13345-61-4, Dose [Inhibitor]: 100 UG IN 0.2 ML ACETONE ONCE 5 MIN BEFORE CARCINOGEN TREATMENT (STUDY DURATION: 31 WK), Strain/Sex: CD-1/FEMALE, Dose [Carcinogen]: 740 NMOL IN 0.2 ML ACETONE ONCE","84%, 63%, 25%, not calculated"
same,"tumour outcome (control, treated, inhibition, significance)","Carcinogen: 7-HYDROXYMETHYL-12-METHYLBENZ[A]ANTHRACENE, 568-75-2, Dose [Inhibitor]: 100 UG IN 0.2 ML ACETONE ONCE 5 MIN BEFORE CARCINOGEN TREATMENT (STUDY DURATION: 31 WK), Strain/Sex: CD-1/FEMALE, Dose [Carcinogen]: 400 NMOL IN 0.2 ML ACETONE ONCE","48%, 52%, -8%, not calculated"
same,"tumour outcome (control, treated, inhibition, significance)","Carcinogen: 12-BROMOMETHYL-7-METHYLBENZ[A]ANTHRACENE, 59230-81-8, Dose [Inhibitor]: 100 UG IN 0.2 ML ACETONE ONCE 5 MIN BEFORE CARCINOGEN TREATMENT (STUDY DURATION: 31 WK), Strain/Sex: CD-1/FEMALE, Dose [Carcinogen]: 600 NMOL IN 0.2 ML ACETONE ONCE","87%, 74%, 15%, not calculated"
same,"tumour outcome (control, treated, inhibition, significance)","Carcinogen: BENZO[A]PYRENE, 50-32-8, Dose [Inhibitor]: 10 UG IN 0.2 ML ACETONE ONCE 5 MINUTES BEFORE CARCINOGEN TREATMENT (STUDY DURATION: 31 WK), Strain/Sex: CD-1/FEMALE, Dose [Carcinogen]: 400 NMOL IN 0.2 ML ACETONE ONCE","90%, 90%, 0%, not calculated"
same,"tumour outcome (control, treated, inhibition, significance)","Carcinogen: BENZO[A]PYRENE, 50-32-8, Dose [Inhibitor]: 100 UG IN 0.2 ML ACETONE ONCE 5 MINUTES BEFORE CARCINOGEN TREATMENT (STUDY DURATION: 31 WK), Strain/Sex: CD-1/FEMALE, Dose [Carcinogen]: 400 NMOL IN 0.2 ML ACETONE ONCE","90%, 80%, 11%, not calculated"
same,"tumour outcome (control, treated, inhibition, significance)","Carcinogen: BENZO[A]PYRENE, 50-32-8, Dose [Inhibitor]: 200 UG IN 0.2 ML ACETONE ONCE 5 MINUTES BEFORE CARCINOGEN TREATMENT (STUDY DURATION: 31 WK), Strain/Sex: CD-1/FEMALE, Dose [Carcinogen]: 400 NMOL IN 0.2 ML ACETONE ONCE","90%, 77%, 14%, not calculated"
same,"tumour outcome (control, treated, inhibition, significance)","Carcinogen: DIBENZO[A,H]ANTHRACENE, 53-70-3, Dose [Inhibitor]: 0, 370 NMOL IN 0.2 ML ACETONE APPLIED 5 MIN PRIOR TO CARCINOGEN (STUDY DURATION: 21 WK), Strain/Sex: SENCAR/FEMALE, Dose [Carcinogen]: 200 NMOL IN 0.2 ML ACETONE ONCE","100%, 77%, 23%, not calculated"
same,"tumour outcome (control, treated, inhibition, significance)","Carcinogen: DIBENZO[A,H]ANTHRACENE, 53-70-3, Dose [Inhibitor]: 0, 3700 NMOL IN 0.2 ML ACETONE APPLIED 5 MIN PRIOR TO CARCINOGEN (STUDY DURATION: 21 WK), Strain/Sex: SENCAR/FEMALE, Dose [Carcinogen]: 200 NMOL IN 0.2 ML ACETONE ONCE","100%, 80%, 20%, not calculated"
